Key:
[1] = test system: influenza virus; test: microbe, parasite or virus in culture; type: cell-based, influenza virus (MDBK or MDCK cells); details: unidentified influenza virus, 72 h, read-out: CPE EC50, effective concentration to achieve 50% CPE inhibition, 3 days incubation, WST-8
[2] = biological target: cap-dependent endonuclease (RNP fraction containing PB1•PB2•PA complex) (Influenza A virus, UniProt P15659); test: biochemical; details: RNP from A/WSN/33 virus, capped Cy3/BHQ2 30mer RNA substrate, 60 minutes at room temperature; read-out: CEN IC50

| Structure (SMILES) | EC50 [1] [nM] | IC50 [2] [nM] |
| --- | --- | --- |
| C[C@H](N1CN(C2c3ccccc3CSc3ccccc32)n2ccc(=O)c(O)c2C1=O)C(C)(C)C (stereo partly drawn) [Example 314] | 26 | 149 |
| Cc1noc(CN2CN(C3c4ccccc4CSc4ccccc43)n3ccc(=O)c(O)c3C2=O)n1 (stereo not drawn) [Example 315] | 115 | 57 |
| O=C1c2c(O)c(=O)ccn2N(C2c3ccccc3CSc3ccccc32)CN1Cc1nccs1 (stereo not drawn) [Example 316] | 83 | 69 |
| COC[C@H](C)N1CN(C2c3ccccc3CSc3ccccc32)n2ccc(=O)c(O)c2C1=O (stereo partly drawn) [Example 317] | 17 | 48 |
| C[C@@H](N1CN(C2c3ccccc3CSc3ccccc32)n2ccc(=O)c(O)c2C1=O)C(C)(C)C (stereo partly drawn) [Example 320] | 11 | 45 |
| O=C1c2c(O)c(=O)ccn2N(C2c3ccccc3CSc3ccccc32)CN1C(CF)CF (stereo not drawn) [Example 322] | 28 | 113 |
| O=C1c2c(O)c(=O)ccn2N(C2c3ccccc3CSc3ccccc32)CN1[C@@H]1C[C@@H]1F (stereo partly drawn) [Example 323] | 19 | 77 |
| O=C1c2c(O)c(=O)ccn2N(C2c3ccccc3CSc3ccccc32)CN1C1CC(F)(F)C1 (stereo not drawn) [Example 324] | 35 | 107 |
| CC(C)N1CN(C2c3ccccc3CSc3cc(Cl)ccc32)n2ccc(=O)c(O)c2C1=O (stereo not drawn) [Example 327] | 24 | 92 |
| CC(C)N1CN(C2c3ccccc3CSc3ccc(F)cc32)n2ccc(=O)c(O)c2C1=O (stereo not drawn) [Example 329] | 23 | 58 |
| CCN1CN(C2c3ccccc3CSc3c(Cl)cccc32)n2ccc(=O)c(O)c2C1=O (stereo not drawn) [Example 330] | 19 | 26 |
| CN1CN(C2c3ccccc3CSc3ccc(Cl)cc32)n2ccc(=O)c(O)c2C1=O (stereo not drawn) [Example 331] | 335 | 45 |
| COCCN1CN(C2c3ccccc3CSc3ccc(Cl)cc32)n2ccc(=O)c(O)c2C1=O (stereo not drawn) [Example 333] | 425 | 21 |
| COCCN1CN(C2c3ccccc3CSc3cc(Cl)ccc32)n2ccc(=O)c(O)c2C1=O (stereo not drawn) [Example 334] | 32 | 75 |
| COCCN1CN(C2c3ccccc3CSc3c(Cl)cccc32)n2ccc(=O)c(O)c2C1=O (stereo not drawn) [Example 335] | 16 | 19 |
| COCCN1CN(C2c3ccccc3CSc3cc(F)ccc32)n2ccc(=O)c(O)c2C1=O (stereo not drawn) [Example 337] | 28 | 58 |
| COCCN1CN(C2c3ccccc3CSc3ccc(F)cc32)n2ccc(=O)c(O)c2C1=O (stereo not drawn) [Example 338] | 85 | 74 |
| O=C1c2c(O)c(=O)ccn2N(C2c3ccccc3CSc3c(Cl)cccc32)CN1C1CC1 (stereo not drawn) [Example 341] | 27 | 16 |
| CC(N1CN(C2c3ccccc3CSc3c(Cl)cccc32)n2ccc(=O)c(O)c2C1=O)C(F)(F)F (stereo not drawn) [Example 343] | 18 | 122 |
| CC(C)N1CN(C2c3cc(F)ccc3CSc3ccc(F)cc32)n2ccc(=O)c(O)c2C1=O (stereo not drawn) [Example 346] | 18 | 28 |
| CN1CN(C2c3ccccc3CSc3c(Cl)cccc32)n2ccc(=O)c(O)c2C1=O (stereo not drawn) [Example 347] | 17 | 14 |

| Structure (SMILES) | EC50 [1] [nM] | IC50 [2] [nM] |
| --- | --- | --- |
| CN1CN(C2c3ccccc3CSc3ccc(F)cc32)n2ccc(=O)c(O)c2C1=O (stereo not drawn) [Example 349] | 75 | 53 |
| CN1CN(C2c3ccccc3CSc3cc(F)ccc32)n2ccc(=O)c(O)c2C1=O (stereo not drawn) [Example 355] | 75 | 40 |
| Cc1ccc2c(c1)C(N1CN(C(C)C)C(=O)c3c(O)c(=O)ccn31)c1ccccc1CS2 (stereo not drawn) [Example 357] | 386 | 138 |
| Cc1ccc(C)c2c1SCc1ccccc1C2N1CN(C(C)C)C(=O)c2c(O)c(=O)ccn21 (stereo not drawn) [Example 358] | 69 | 51 |
| O=C1c2c(O)c(=O)ccn2N(C2c3ccccc3CSc3ccccc32)CN1CCO (stereo not drawn) [Example 360] | 87 | 42 |
| O=C1c2c(O)c(=O)ccn2N(C2c3ccccc3CCc3ccccc32)CN1CCO [Example 361] | 145 | 39 |
| CC(CO)N1CN(C2c3ccccc3CSc3ccccc32)n2ccc(=O)c(O)c2C1=O (stereo not drawn) [Example 363] | 67 | 58 |
| O=C1c2c(O)c(=O)ccn2N(C2c3ccccc3CSc3ccccc32)CN1CC(O)CO (stereo not drawn) [Example 365] | 2250 | 41 |
| O=C1c2c(O)c(=O)ccn2N(C2c3ccccc3CSc3ccccc32)CN1C(CO)CO (stereo not drawn) [Example 366] | 838 | 90 |
| CC(CO)N1CN(C(c2ccccc2)c2ccccc2)n2ccc(=O)c(O)c2C1=O (stereo not drawn) [Example 368] | 470 | 140 |
| CC(CCO)N1CN(C(c2ccccc2)c2ccccc2)n2ccc(=O)c(O)c2C1=O (stereo not drawn) [Example 369] | 434 | 294 |
| CC(C)(O)CN1CN(C2c3ccccc3CCc3ccccc32)n2ccc(=O)c(O)c2C1=O [Example 370] | 61 | 113 |
| CC(C)(O)CN1CN(C2c3ccccc3CSc3ccccc32)n2ccc(=O)c(O)c2C1=O (stereo not drawn) [Example 371] | 74 | 161 |
| O=C1c2c(O)c(=O)ccn2N(C2c3ccccc3CSc3ccccc32)CN1CC1(O)CCCCC1 (stereo not drawn) [Example 372] | 146 | 164 |
| O=C1c2c(O)c(=O)ccn2N(C2c3ccccc3CSc3ccccc32)CN1[C@H](CO)c1ccccc1 (stereo partly drawn) [Example 376] | 92 | 63 |
| CC(C)[C@@H](CO)N1CN(C2c3ccccc3CSc3ccccc32)n2ccc(=O)c(O)c2C1=O (stereo partly drawn) [Example 378] | 22 | 47 |
| CC(C)N1CN(C2c3ccccc3CCc3c(CO)cccc32)n2ccc(=O)c(O)c2C1=O (stereo not drawn) [Example 384] | 293 | 153 |
| CC(C)N1CN([C@@H]2c3ccccc3[C@@H]3[C@H](c4ccccc42)C3(F)F)n2ccc(=O)c(O)c2C1=O [Example 386] | 96 | 75 |
| CC(C)N1CN(C2c3ccccc3NC(=O)c3ccccc32)n2ccc(=O)c(O)c2C1=O (stereo not drawn) [Example 387] | 1150 | 300 |
| CC(C)N1CN(C2c3ccccc3CCc3ccsc32)n2ccc(=O)c(O)c2C1=O (stereo not drawn) [Example 388] | 63 | 133 |
| CC(C)N1CN(C2c3ccccc3COc3c(Cl)cccc32)n2ccc(=O)c(O)c2C1=O (stereo not drawn) [Example 390] | 29 | 95 |

| Structure (SMILES) | EC50 [1] [nM] | IC50 [2] [nM] |
| --- | --- | --- |
| O=C1c2c(O)c(=O)ccn2N(C2c3ccccc3COc3ccccc32)CN1C1CC1 (stereo not drawn) [Example 392] | 25 | 153 |
| COCCN1CN(C2c3ccccc3COc3ccccc32)n2ccc(=O)c(O)c2C1=O (stereo not drawn) [Example 394] | 64 | 87 |
| CN1CN(C2c3ccccc3COc3ccccc32)n2ccc(=O)c(O)c2C1=O (stereo not drawn) [Example 395] | 89 | 43 |
| CC(C)N1CN(C2c3ccccc3COc3ccc(Cl)cc32)n2ccc(=O)c(O)c2C1=O (stereo not drawn) [Example 398] | 118 | 34 |
| CC(C)N1CN(C2c3ccccc3COc3cc(F)ccc32)n2ccc(=O)c(O)c2C1=O (stereo not drawn) [Example 399] | 61 | 105 |
| COCCN1CN(C2c3ccccc3COc3c(F)cccc32)n2ccc(=O)c(O)c2C1=O (stereo not drawn) [Example 400] | 79 | 67 |
| COCCN1CN(C2c3cc(F)ccc3COc3ccccc32)n2ccc(=O)c(O)c2C1=O (stereo not drawn) [Example 404] | 63 | 84 |
| COCCN1CN(C2c3ccccc3OCc3c(F)cccc32)n2ccc(=O)c(O)c2C1=O (stereo not drawn) [Example 405] | 51 | 74 |
| CC(C)N1CN(C2c3ccccc3OCc3c(F)cccc32)n2ccc(=O)c(O)c2C1=O (stereo not drawn) [Example 407] | 17 | 35 |
| CC(C)N1CN(C2c3cc(Cl)ccc3COc3ccccc32)n2ccc(=O)c(O)c2C1=O (stereo not drawn) [Example 408] | 61 | 135 |
| C[C@@H](N1CN(C2c3ccccc3COc3c(Cl)cccc32)n2ccc(=O)c(O)c2C1=O)C(F)(F)F (stereo partly drawn) [Example 411] | 14 | 46 |
| CC(C)c1cccc2c1OCc1ccccc1C2N1CN(C(C)C)C(=O)c2c(O)c(=O)ccn21 (stereo not drawn) [Example 412] | 203 | 292 |
| C[C@H](N1CN([C@@H]2c3ccccc3SCc3c(Cl)cccc32)n2ccc(=O)c(O)c2C1=O)C(F)(F)F [Example 419] | 19 | 124 |
| C[C@H](N1CN([C@H]2c3ccc(Cl)cc3CSc3ccccc32)n2ccc(=O)c(O)c2C1=O)C(F)(F)F [Example 420] | 21 | 58 |
| C[C@H](N1CN([C@H]2c3ccccc3CSc3c(Cl)cccc32)n2ccc(=O)c(O)c2C1=O)C(F)(F)F [Example 423] | 19 | 280 |
| C[C@@H](N1CN([C@H]2c3ccc(Br)cc3CSc3ccccc32)n2ccc(=O)c(O)c2C1=O)C(F)(F)F [Example 433] | 17 | 14 |
| C[C@@H](N1CN([C@H]2c3ccccc3SCc3c(F)cccc32)n2ccc(=O)c(O)c2C1=O)C(F)(F)F [Example 445] | 4 | 13 |
| C[C@@H](N1CN([C@H]2c3ccc(Cl)cc3CSc3ccccc32)n2ccc(=O)c(O)c2C1=O)C(F)(F)F [Example 446] | 11 | 7 |
| C[C@H](N1CN([C@H]2c3cc(F)ccc3CSc3ccccc32)n2ccc(=O)c(O)c2C1=O)C(F)(F)F [Example 447] | 18 | 96 |
| C[C@@H](N1CN([C@H]2c3ccccc3CSc3cc(Cl)ccc32)n2ccc(=O)c(O)c2C1=O)C(F)(F)F [Example 449] | 21 | 62 |
| C[C@H](N1CN([C@@H]2c3ccccc3SCc3c(F)cccc32)n2ccc(=O)c(O)c2C1=O)C(F)(F)F [Example 452] | 16 | 177 |
